The text below walks through data of patent US8580965B2, “Substituted sulfonamide compounds” (Gruenenthal GmbH, priority 2006, dated 2013).

As usually defined, the inhibition is the drop in the measured response relative to a control, in per cent.

Experiment [1] concerns the target T1, human B1R receptor (bradykinin 1 receptor) (Homo sapiens, UniProt P46663).
T1 construct: host or cells: CHO K1 cells (hB1R cells)
T1 sequence (P46663 1-353): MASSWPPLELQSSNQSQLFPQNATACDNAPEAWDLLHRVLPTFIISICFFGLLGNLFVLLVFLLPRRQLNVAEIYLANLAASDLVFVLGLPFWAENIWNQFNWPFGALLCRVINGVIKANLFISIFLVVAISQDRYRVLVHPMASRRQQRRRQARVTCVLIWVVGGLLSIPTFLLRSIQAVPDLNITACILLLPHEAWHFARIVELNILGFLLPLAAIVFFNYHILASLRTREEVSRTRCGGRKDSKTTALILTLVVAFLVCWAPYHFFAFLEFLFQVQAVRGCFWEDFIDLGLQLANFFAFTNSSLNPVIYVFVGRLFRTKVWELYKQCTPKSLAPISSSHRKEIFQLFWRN
The experiment in a line: FLIPR Ca2+ assay (Fluo-4) on CHO K1 cells stably transfected with the human B1R gene; % activation and % inhibition at 10 μM. Format: cell-based. The following applies: CHO-K1, test substance 10 μM; CHO K1 hB1R cells; Ca2+ inflow after 0.5 nM Lys-Des-Arg9-bradykinin; read-out: B1R antagonism, human [10 μM] % inhibition. The gist of the method: (§1)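 Fluo-4 Ca2+ flux on FLIPR in stable hB1R or rB1R CHO K1 lines, two additions. Agonism: 10 µM compound versus 0.5 nM Lys-Des-Arg9-BK (human) or 100 nM Des-Arg9-BK (rat); antagonism: same agonists applied 10 min later, suppression expressed against maximum achievable inhibition.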

Experiment [2] has as its target T2, B1R receptor of the rat (bradykinin 1 receptor) (Rattus norvegicus, UniProt P97583).
T2 construct: host or cells: CHO K1 cells (rB1R cells)
T2 sequence (P97583 1-337): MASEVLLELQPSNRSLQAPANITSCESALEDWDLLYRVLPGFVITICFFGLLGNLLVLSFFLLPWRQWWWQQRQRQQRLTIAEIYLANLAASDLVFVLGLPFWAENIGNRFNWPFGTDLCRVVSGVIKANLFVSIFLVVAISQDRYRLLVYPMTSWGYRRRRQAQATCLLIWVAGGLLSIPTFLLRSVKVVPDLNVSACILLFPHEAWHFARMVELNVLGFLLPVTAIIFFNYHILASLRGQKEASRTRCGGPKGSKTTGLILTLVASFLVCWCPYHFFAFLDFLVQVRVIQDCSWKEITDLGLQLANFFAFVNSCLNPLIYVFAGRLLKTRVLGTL
Nature of the experiment: FLIPR Ca2+ assay (Fluo-4) on CHO K1 cells stably transfected with the B1R gene of the rat; % activation and % inhibition at 10 μM. Format: cell-based. The following applies: CHO-K1, test substance 10 μM; CHO K1 rB1R cells; Ca2+ inflow after 100 nM Des-Arg9-bradykinin; read-out: B1R antagonism, rat [10 μM] % inhibition. Summed up: as §1

Consider `O=C(COCC1CCCN1S(=O)(=O)c1c(Cl)cccc1Cl)N1CCC(O)(Cc2ccccc2)CC1` (stereo not drawn) [Example 221, 1-(4-benzyl-4-hydroxypiperidin-1-yl)-2-((1-(2,6-dichlorophenylsulfonyl)pyrrolidin-2-yl)methoxy)ethanone], for which the inhibition at 10 µM was 23.5% in experiment [1] and 89.5% in experiment [2].

With `COc1cc(C)c(S(=O)(=O)N2Cc3ccccc3CC2COCC(=O)N2CCC(O)(c3cccnc3)CC2)c(C)c1C` (stereo not drawn) [Example 195, 1-(4-hydroxy-4-(pyridin-3-yl)piperidin-1-yl)-2-((2-(4-methoxy-2,3,6-trimethylphenylsulfonyl)-1,2,3,4-tetrahydroisoquinolin-3-yl)methoxy)ethanone], the inhibition at 10 µM is 97.8% in experiment [1] and 93.5% in experiment [2].

Turning to `Cc1ccc(F)cc1S(=O)(=O)N(C)CCOCC(=O)N1CCC(O)(c2ccc(Cl)cc2)CC1` [Example 61, N-(2-(2-(4-(4-chlorophenyl)-4-hydroxypiperidin-1-yl)-2-oxoethoxy)ethyl)-5-fluoro-N,2-dimethylphenylsulfonamide], the values for the inhibition at 10 µM in experiment [1] and in experiment [2] were 56.2% and 86.4%, respectively.

Turning to `COc1cc(C)c(S(=O)(=O)N(CCOCC(=O)N2CCC(O)(c3ccc(Cl)c(C(F)(F)F)c3)CC2)CC(C)C)c(C)c1C` [Example 238, N-(2-(2-(4-(4-chloro-3-(trifluoromethyl)phenyl)-4-hydroxypiperidin-1-yl)-2-oxoethoxy)ethyl)-N-isobutyl-4-methoxy-2,3,6-trimethylphenylsulfonamide], the inhibition at 10 µM in experiment [1] was 57.3%; in experiment [2], 97.4%.

For `O=C(COCC1CCCN1S(=O)(=O)c1c(Cl)cc(C(F)(F)F)cc1Cl)N1CCC(O)(c2cccc(C(F)(F)F)c2)CC1` (stereo not drawn) [Example 170, 2-((1-(2,6-dichloro-4-(trifluoromethyl)phenylsulfonyl)pyrrolidin-2-yl)methoxy)-1-(4-hydroxy-4-(3-(trifluoromethyl)phenyl)piperidin-1-yl)ethanone], the inhibition at 10 µM in experiment [1] worked out at 25.7%; in experiment [2] it was 103%.

Take `O=C(COCC1Cc2ccccc2CN1S(=O)(=O)c1ccc(Cl)c(Cl)c1)N1CCC(O)(c2cccnc2)CC1` (stereo not drawn) [Example 91, 2-[2-(3,4-dichloro-phenylsulfonyl)-1,2,3,4-tetrahydro-isoquinolin-3-ylmethoxy]-1-(4′-hydroxy-3′,4′,5′,6′-tetrahydro-2′H-[3,4′]bipyridinyl-1′-yl)-ethanone]: the inhibition at 10 µM in experiment [1] and in experiment [2] was 93.7% in each case.

As to `O=C(COCC1CCCCN1S(=O)(=O)c1c(Cl)cccc1Cl)N1CCC(O)(c2cccc(C(F)(F)F)c2)CC1` (stereo not drawn) [Example 235, 2-((1-(2,6-dichlorophenylsulfonyl)piperidin-2-yl)methoxy)-1-(4-hydroxy-4-(3-(trifluoromethyl)phenyl)piperidin-1-yl)ethanone], the results for the inhibition at 10 µM in experiment [1] and in experiment [2] were 103% and 99.9%, respectively.

Regarding `COc1cc(C)c(S(=O)(=O)N(CCOCC(=O)N2CCC(O)(c3ccccc3)CC2)CC2CC2)c(C)c1C` [Example 206, N-(cyclopropylmethyl)-N-(2-(2-(4-hydroxy-4-phenylpiperidin-1-yl)-2-oxoethoxy)ethyl)-4-methoxy-2,3,6-trimethylphenylsulfonamide], the inhibition at 10 µM in experiment [1] came out at 105%; in experiment [2], 100%.

For `COc1cc(C)c(S(=O)(=O)N(CCOCC(=O)N2CCC(O)(c3cccs3)CC2)CC2CC2)c(C)c1C` [Example 268, N-(cyclopropylmethyl)-N-(2-(2-(4-hydroxy-4-(thiophen-2-yl)piperidin-1-yl)-2-oxoethoxy)ethyl)-4-methoxy-2,3,6-trimethylphenylsulfonamide], the inhibition at 10 µM in experiment [1] came out at 99.1%; in experiment [2], 98.8%.

As for `O=C(COCC1CCCCN1S(=O)(=O)c1c(Cl)cc(C(F)(F)F)cc1Cl)N1CCC(O)(Cc2ccccc2)CC1` (stereo not drawn) [Example 163, 1-(4-benzyl-4-hydroxypiperidin-1-yl)-2-((1-(2,6-dichloro-4-(trifluoromethyl)phenylsulfonyl)piperidin-2-yl)methoxy)ethanone], the inhibition at 10 µM was determined as 46.1% in experiment [1] and 101% in experiment [2].

With `COc1cc(C)c(S(=O)(=O)N(C)CCOCC(=O)N2CCC(O)(c3cccc(C(F)(F)F)c3)CC2)c(C)c1` [Example 132, N-(2-(2-(4-hydroxy-4-(3-(trifluoromethyl)phenyl)piperidin-1-yl)-2-oxoethoxy)ethyl)-4-methoxy-N,2,6-trimethylphenylsulfonamide], the inhibition at 10 µM in experiment [1] is 101%; in experiment [2] it was 99.1%.

Take `Cc1cc(C)c(S(=O)(=O)N2CCCCC2COCC(=O)N2CCC(O)(Cc3ccccc3)CC2)c(C)c1` (stereo not drawn) [Example 67, 1-(4-benzyl-4-hydroxy-piperidin-1-yl)-2-[1-(2,4,6-trimethyl-phenylsulfonyl)-piperidin-2-ylmethoxy]-ethanone]: the figures for the inhibition at 10 µM in experiment [1] and in experiment [2] were 55.4% and 86.5%, respectively.

For `COc1cc(C)c(S(=O)(=O)N(C)CCOCC(=O)N2CCC(O)(c3cccs3)CC2)c(C)c1` [Example 86, N-{2-[2-(4-hydroxy-4-thiophen-2-yl-piperidin-1-yl)-2-oxo-ethoxy]-ethyl}-4-methoxy-2,6,N-trimethyl-phenylsulfonamide], the inhibition at 10 µM in experiment [1] was 106%; in experiment [2] it was 102%.

As to `COc1cc(C)c(S(=O)(=O)N2CCCCC2COCC(=O)N2CCC(O)(Cc3ccccc3)CC2)c(C)c1` (stereo not drawn) [Example 245, 1-(4-benzyl-4-hydroxypiperidin-1-yl)-2-((1-(4-methoxy-2,6-dimethylphenylsulfonyl)piperidin-2-yl)methoxy)ethanone], the inhibition at 10 µM in experiment [1] stood at 99.8%; in experiment [2], 97.7%.

Take `O=C(COCC1CCCCN1S(=O)(=O)c1ccccc1C(F)(F)F)N1CCC(O)(c2cccc(C(F)(F)F)c2)CC1` (stereo not drawn) [Example 177, 1-(4-hydroxy-4-(3-(trifluoromethyl)phenyl)piperidin-1-yl)-2-((1-(2-(trifluoromethyl)phenylsulfonyl)piperidin-2-yl)methoxy)ethanone]: the inhibition at 10 µM is 101% in experiment [1] and 104% in experiment [2].

Consider `COc1cc(C)c(S(=O)(=O)N2CCCC2COCC(=O)N2CCC(O)(c3cccnc3)CC2)c(C)c1` (stereo not drawn) [Example 193, 1-(4-hydroxy-4-(pyridin-3-yl)piperidin-1-yl)-2-((1-(4-methoxy-2,6-dimethylphenylsulfonyl)pyrrolidin-2-yl)methoxy)ethanone], for which the results for the inhibition at 10 µM in experiment [1] and in experiment [2] were 104% and 96.6%, respectively.

In the case of `O=C(COCC1CCCCN1S(=O)(=O)c1ccccc1C(F)(F)F)N1CCC(O)(c2ccc(Cl)c(C(F)(F)F)c2)CC1` (stereo not drawn) [Example 178, 1-(4-(4-chloro-3-(trifluoromethyl)phenyl)-4-hydroxypiperidin-1-yl)-2-((1-(2-(trifluoromethyl)phenylsulfonyl)piperidin-2-yl)methoxy)ethanone], the inhibition at 10 µM in experiment [1] worked out at 89.4%; in experiment [2], 104%.

For `O=C(COCC1Cc2ccccc2N1S(=O)(=O)c1ccc(Cl)cc1Cl)N1CCC(O)(c2cccnc2)CC1` (stereo not drawn) [Example 135, 2-((1-(2,4-dichlorophenylsulfonyl)indolin-2-yl)methoxy)-1-(4-hydroxy-4-(pyridin-3-yl)piperidin-1-yl)ethanone], the values for the inhibition at 10 µM in experiment [1] and in experiment [2] were 99.8% and 100%, respectively.
